Literature values in publication PMC3136501 (PLoS ONE, 2011).

Tested on: OCTs
Conditions: high-affinity interaction with OCTs; cited from earlier work
For `Nc1nc(NC2CC2)c2ncn([C@H]3C=C[C@@H](CO)C3)c2n1` [Abacavir], the “IC50 (interaction with OCTs)” value is given as “low nanomolar range”. In the case of `Cc1cn([C@H]2C[C@H](N=[N+]=[N-])[C@@H](CO)O2)c(=O)[nH]c1=O` [Azidothymidine], the “IC50 (interaction with OCTs)” value is given as “low nanomolar range”. In the case of `Nc1nc(=O)n([C@@H]2CS[C@H](CO)O2)cc1F` [Emtricitabine], the “IC50 (interaction with OCTs)” value is given as “low nanomolar range”. In the case of `Nc1ccn([C@@H]2CS[C@H](CO)O2)c(=O)n1` [Lamivudine], the “IC50 (interaction with OCTs)” value is given as “low nanomolar range”. In the case of `C[C@H](Cn1cnc2c(N)ncnc21)OCP(=O)(O)O` [Tenofovir], the “IC50 (interaction with OCTs)” value is given as “low nanomolar range”.
